The values that follow come from PMC9602792, “Preclinical evaluation of the epithelial sodium channel inhibitor AZD5634 and implications on human translation” (American Journal of Physiology - Lung Cellular and …, 2022).

Data set [1] relates to F508del-homozygous HBEC cultures. Put plainly: μOCT imaging of ASL depth, MCT rate and CBF in F508del-homozygous CF HBEC cultures. The data set is classed as cell-based, human. As to conditions: AZD5634 1 µM apical. As for the experimental part: Using previously described techniques ([2], [37]), epithelial cells were harvested from excised lung tissue derived from CF donors homozygous for F508del CFTR, expanded, and grown until confluency was attained. The cells were then seeded on 6.5-mm-diameter, 24-well Transwell permeable membrane supports coated with NIH 3T3 fibroblast unconditioned media (0.5 × 10^6 cells/filter; Corning Inc., Corning, NY) and further allowed to mature in differentiating media (PneumaCult ALI, […] Technologies, Cambridge, MA) for a minimum of 4–5 wk until fully differentiated. To stimulate fresh mucus secretion and formation of an even ASL layer, the cells were washed 48–72 h before experimentation with PneumaCult ALI media (80 µL), added apically, and then aspirated following 30–45 min incubation at 37°C. The washing process was repeated with a 15-min incubation period and the mucus layer was allowed to reestablish, after which the cells were treated with 1 µL of AZD5634 (1 µM, apical), alone and in combination with lumacaftor and ivacaftor (luma/iva; 3 µM/10 µM, basolateral). PBS (1% DMSO, apical) served as a vehicle control. […] Only passage 1 and 2 monolayers were used for these studies.
μOCT imaging and analysis were conducted in vitro and ex vivo as detailed in previous publications ([2], [39]–[41]). […] Following imaging of HBEC cultures and of excised trachea and lungs, images were assessed to obtain quantitative measurements of mucociliary transport (MCT) rate, ASL depth, and ciliary beat frequency (CBF). MCT rates were calculated by analyzing the distance traveled by native particles in the mucus layer over time across multiple frames. […] CBF was determined by using custom code developed in Matlab (Mathworks, Natick, MA) to quantify the reflectance of beating cilia by Fourier analysis. […]
Descriptive statistics were calculated and means compared using unpaired or paired t tests, or ANOVA, with post hoc analyses conducted for multiple comparisons where appropriate. […]

Details of data set [2]: method as in unpublished information. As to conditions: ref unpublished information, cited from earlier work.

AZD5634: in data set [1] (6 h, luma/iva 3 µM/10 µM basolateral, absolute values), the ASL depth was determined as 24.8 ± 3.6 µm. Further, the CBF in data set [1] (absolute value) is 8.6 ± 0.5 Hz. In data set [1] (luma/iva 3 µM/10 µM basolateral, absolute values), the MCT rate was found to be 2.5 ± 0.5 mm/min. In addition, the hyperkalemia result in data set [2] (after inhalation and/or nebulization) is recorded as “does not cause hyperkalemia”. Moreover, in data set [2], the renal clearance entry is reported as “minimal”.
